Data: PubChem BioAssay (NCI)
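Where inhibition never reached the appropriate level, the endpoint shown equals the highest concentration tested. Otherwise, values were interpolated linearly from a five-concentration, 48-hour dose response in 96-well plates. Here, GI50 denotes the concentration required for 50% inhibition of growth. TGI: total growth inhibition.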

Columns and labels:
Experiment in all cases: growth of human tumour cells (NCI), 48 h
RXF 393 renal = test system: RXF 393 renal
BT-549 breast = test system: BT-549 breast
HT29 colon = test system: HT29 colon
SK-MEL-2 melanoma = test system: SK-MEL-2 melanoma
LOX IMVI melanoma = test system: LOX IMVI melanoma
NCI-H522 lung = test system: NCI-H522 lung
OVCAR-5 ovarian = test system: OVCAR-5 ovarian
COLO 205 colon = test system: COLO 205 colon
SK-MEL-5 melanoma = test system: SK-MEL-5 melanoma
786-0 renal = test system: 786-0 renal
TK-10 renal = test system: TK-10 renal
IGROV1 ovarian = test system: IGROV1 ovarian
OVCAR-8 ovarian = test system: OVCAR-8 ovarian
CAKI-1 renal = test system: CAKI-1 renal
KM12 colon = test system: KM12 colon
UACC-62 melanoma = test system: UACC-62 melanoma
K-562 leukemia = test system: K-562 leukemia
MALME-3M melanoma = test system: MALME-3M melanoma
U251 CNS = test system: U251 CNS
A549 NSCLC = test system: A549 NSCLC
PC-3 prostate = test system: PC-3 prostate
ACHN renal = test system: ACHN renal
CCRF-CEM leukemia = test system: CCRF-CEM leukemia
MCF7 breast = test system: MCF7 breast
UACC-257 melanoma = test system: UACC-257 melanoma
DU-145 prostate = test system: DU-145 prostate
SF-539 CNS = test system: SF-539 CNS
NCI-H226 lung = test system: NCI-H226 lung
M14 melanoma = test system: M14 melanoma
MDA-MB-231 breast = test system: MDA-MB-231 breast
MDA-MB-435 = test system: MDA-MB-435
T-47D breast = test system: T-47D breast
NCI/ADR-RES ovarian = test system: NCI/ADR-RES ovarian
UO-31 renal = test system: UO-31 renal
SK-MEL-28 melanoma = test system: SK-MEL-28 melanoma
SF-295 CNS = test system: SF-295 CNS
EKVX NSCLC = test system: EKVX NSCLC
SK-OV-3 ovarian = test system: SK-OV-3 ovarian
NCI-H460 lung = test system: NCI-H460 lung
A498 renal = test system: A498 renal
HCC-2998 colon = test system: HCC-2998 colon
SNB-19 CNS = test system: SNB-19 CNS
HOP-62 NSCLC = test system: HOP-62 NSCLC
SF-268 CNS = test system: SF-268 CNS
OVCAR-4 ovarian = test system: OVCAR-4 ovarian
HCT-116 colon = test system: HCT-116 colon
OVCAR-3 ovarian = test system: OVCAR-3 ovarian
SW-620 colon = test system: SW-620 colon
NCI-H23 lung = test system: NCI-H23 lung
SNB-75 CNS = test system: SNB-75 CNS
HCT-15 colon = test system: HCT-15 colon
MOLT-4 leukemia = test system: MOLT-4 leukemia

c1ccc2c(CNCCN3CCNCC3)c3ccccc3c(CNCCN3CCNCC3)c2c1
GI50 (RXF 393 renal): 25.3 µM | TGI (RXF 393 renal): 81.9 µM | GI50 (BT-549 breast): 28.3 µM | TGI (BT-549 breast): 75.6 µM | GI50 (HT29 colon): 29.2 µM | TGI (HT29 colon): > 100 µM | GI50 (SK-MEL-2 melanoma): 29 µM | TGI (SK-MEL-2 melanoma): > 100 µM | GI50 (LOX IMVI melanoma): 12.9 µM | TGI (LOX IMVI melanoma): 29.5 µM | GI50 (NCI-H522 lung): 13 µM | TGI (NCI-H522 lung): 35.9 µM | GI50 (OVCAR-5 ovarian): 3.99 µM | TGI (OVCAR-5 ovarian): 17.4 µM | GI50 (COLO 205 colon): 13.8 µM | TGI (COLO 205 colon): > 100 µM | GI50 (SK-MEL-5 melanoma): 15.6 µM | TGI (SK-MEL-5 melanoma): 35.2 µM | GI50 (786-0 renal): 2.26 µM | TGI (786-0 renal): 23.4 µM | GI50 (TK-10 renal): 19.7 µM | TGI (TK-10 renal): 79.8 µM | GI50 (IGROV1 ovarian): 19.8 µM | TGI (IGROV1 ovarian): 85.3 µM | GI50 (OVCAR-8 ovarian): 36.9 µM | TGI (OVCAR-8 ovarian): > 100 µM | GI50 (CAKI-1 renal): > 100 µM | TGI (CAKI-1 renal): > 100 µM | GI50 (KM12 colon): 10.3 µM | TGI (KM12 colon): 26.8 µM | GI50 (UACC-62 melanoma): 21.1 µM | TGI (UACC-62 melanoma): 44 µM | GI50 (K-562 leukemia): 10.3 µM | TGI (K-562 leukemia): 32.7 µM | GI50 (MALME-3M melanoma): 11.8 µM | TGI (MALME-3M melanoma): 30.2 µM | GI50 (U251 CNS): 14.8 µM | TGI (U251 CNS): 40.3 µM | GI50 (A549 NSCLC): 35.1 µM | TGI (A549 NSCLC): > 100 µM | GI50 (PC-3 prostate): 5.86 µM | TGI (PC-3 prostate): 20.3 µM | GI50 (ACHN renal): 31.2 µM | TGI (ACHN renal): > 100 µM | GI50 (CCRF-CEM leukemia): 2.3 µM | TGI (CCRF-CEM leukemia): 14.2 µM | GI50 (MCF7 breast): 11.5 µM | TGI (MCF7 breast): 50.2 µM | GI50 (UACC-257 melanoma): 62 µM | TGI (UACC-257 melanoma): > 100 µM | GI50 (DU-145 prostate): 7.26 µM | TGI (DU-145 prostate): 33.2 µM | GI50 (SF-539 CNS): 16.4 µM | TGI (SF-539 CNS): 37 µM | GI50 (NCI-H226 lung): 10.3 µM | TGI (NCI-H226 lung): 37.6 µM | GI50 (M14 melanoma): 22.8 µM | TGI (M14 melanoma): 60.4 µM | GI50 (MDA-MB-231 breast): 16 µM | TGI (MDA-MB-231 breast): 38.6 µM | GI50 (MDA-MB-435): 11.7 µM | TGI (MDA-MB-435): 27.2 µM | GI50 (T-47D breast): 19.9 µM | TGI (T-47D breast): 81.9 µM | GI50 (NCI/ADR-RES ovarian): > 100 µM | TGI (NCI/ADR-RES ovarian): > 100 µM | GI50 (UO-31 renal): > 100 µM | TGI (UO-31 renal): > 100 µM | GI50 (SK-MEL-28 melanoma): 42.8 µM | TGI (SK-MEL-28 melanoma): > 100 µM | GI50 (SF-295 CNS): 17.8 µM | TGI (SF-295 CNS): 43.5 µM | GI50 (EKVX NSCLC): 19.3 µM | TGI (EKVX NSCLC): 61.3 µM | GI50 (SK-OV-3 ovarian): 24.5 µM | TGI (SK-OV-3 ovarian): 79.8 µM | GI50 (NCI-H460 lung): 25 µM | TGI (NCI-H460 lung): 98.3 µM | GI50 (A498 renal): 18.3 µM | TGI (A498 renal): 60.7 µM | GI50 (HCC-2998 colon): 12.7 µM | TGI (HCC-2998 colon): 29.4 µM | GI50 (SNB-19 CNS): 20.7 µM | TGI (SNB-19 CNS): > 100 µM | GI50 (HOP-62 NSCLC): 11.9 µM | TGI (HOP-62 NSCLC): 36.1 µM | GI50 (SF-268 CNS): 12.4 µM | TGI (SF-268 CNS): 33.3 µM | GI50 (OVCAR-4 ovarian): 43.8 µM | TGI (OVCAR-4 ovarian): > 100 µM | GI50 (HCT-116 colon): 13.3 µM | TGI (HCT-116 colon): 29.5 µM | GI50 (OVCAR-3 ovarian): 18.9 µM | TGI (OVCAR-3 ovarian): 51.7 µM | GI50 (SW-620 colon): 16.4 µM | TGI (SW-620 colon): 49.3 µM | GI50 (NCI-H23 lung): 16 µM | TGI (NCI-H23 lung): 54.1 µM | GI50 (SNB-75 CNS): 58.4 µM | TGI (SNB-75 CNS): > 100 µM | GI50 (HCT-15 colon): > 100 µM | TGI (HCT-15 colon): > 100 µM | GI50 (MOLT-4 leukemia): 3.88 µM | TGI (MOLT-4 leukemia): 27.5 µM
